# Marks after values point to notes of the source that are not given here.
# Legend:
# Format in all cases: in vivo
# [1] = test system: cuttings from mature Eucalyptus grandis trees; experiment: rooting of cuttings from mature Eucalyptus grandis trees; details: for appearance of the roots compared with IBA alone: 6000 ppm IBA with 100 μM compound, submersion and spraying; for root number compared to IBA control, in words: Example 12: 6000 ppm IBA and 50 μM conjugate dip plus spray
# Procedure: Eight-year-old Eucalyptus grandis plants were grown from seeds and placed in a net house in 20 liter pots containing peat and tuff (70:30, v/v), drip irrigated and fertilized with 3 liters of Shefer™ 737 liquid fertilizer (ICL Fertilizers, Israel) per cubic meter of water. Cuttings were collected from branches which grew 2-2.5 meters above the ground. Cuttings were 2-3 mm thick branches, 15 cm long, with 1-2 pairs of leaves. The leaf blades were cut in half to decrease transpiration. Cuttings were treated with 6000 ppm IBA (potassium indole-3-butyric acid) for 1 minute with or without 100 μM of each tested compound. The tested compounds were either applied to the base of the cutting, with or without IBA and/or sprayed on the foliage in the presence of 0.05% Triton™ X-100 surfactant. Cuttings were rooted in rooting tables heated to 25° C. under constant 90% humidity, in a controlled-climate greenhouse. The rooting medium contained crushed polystyrene foam: vermiculite no. 3: pit (3:2:1, v/v/v). Rooting was recorded after 30-60 days. Roots system architecture was analyzed by WinRHIZO™ system scanner and software.
# Exemplary conjugates prepared as described in Example 1 were tested for their ability to promote adventitious root (AR) formation in cuttings from mature eucalyptus (Eucalyptus grandis) trees. In this model, AR formation is difficult to induce, with 5-15% root development in the presence of IBA potassium salt [Abu-Abied et al., Plant J 2012, 71:787-799], such that effective AR formation indicates a potent root formation activity.
# Various concentrations and mode of applications were tested for each compound in the presence or absence of IBA (the “gold standard” rooting enhancer). A concentration of 100 μM of each conjugate was used for an initial screen of 37 conjugates, in which the compounds were applied to the base of the cutting by dipping (submerging the cutting base in a solution of the conjugate for one minute) or to the foliage by spraying. After 45 days, the cuttings were scored for the presence of callus or roots.
# Conjugates prepared as described herein were evaluated in a Eucalyptus grandis rooting model, according to procedures such as described hereinabove. The bases of cuttings (a 12-15 cm long branch with the two upper leaves, whose blades were cut in half) were dipped in a solution containing 6000 ppm IBA potassium salt and 50 μM of conjugate for 1 minute, and the leaves were sprayed with 50 μM of the same conjugate (mixed with 0.5% Triton™ X-100 surfactant). The cuttings were imbedded in a heated (25° C.) rooting table containing a 1:2:3 ratio of peat:vermiculite:polystyrene, under 90% relative humidity.
# [2] = test system: cuttings from mature Eucalyptus grandis trees; experiment: as above; details: 100 μM compound by submerging or spraying, with 6000 ppm IBA
# Arabidopsis seedlings [3] = experiment: adventitious root formation in intact etiolated Arabidopsis seedlings; details: for adventitious roots formed on average: intact etiolated seedlings, 50 nM, FIG. 17 legend 10 μM for one hour
# Procedure: (§1) Adventitious roots (ARs) were induced in intact plants, using previously described procedures [Gutierrez et al., Plant Cell 2009, 21:3119-3132; Abu-Abied et al., Plant J 2012, 71:787-799; Rasmussen et al., Plant Physiol 2012, 158:1976-1987]. Briefly, seeds were germinated on MS/0.8% agar plates supplemented with 3% sucrose. The plates were kept in the dark for 2 days at 4° C., then 5 days at 22° C. in the dark, 2 days in the light, 3 days in the dark and then additional 4 days in the light to complete 2 weeks when roots were counted using a stereoscope. Sensitivity to auxin and/or auxin analogs was determined by following root elongation on vertical plates. The 4-day-old seedlings were transferred to MS plates containing 0.05 or 0.5 μM IAA and the root length was measured after 5 days, including the number of LRs in each root and calculation of the LR density. Each treatment experiment included 10-15 plants and was repeated 3 times.
# In a third assay utilizing an Arabidopsis model, induction of adventitious root AR formation in intact plants was examined in the presence of 50 nM of tested compounds, which included 5 days incubation in the dark, followed by a shift to the light, according to procedures described by Sorin et al. [Plant Cell 2005, 17:1343-1359].
# Conjugates prepared as described herein were evaluated in an Arabidopsis rooting model, according to procedures such as described hereinabove. Seeds were germinated and kept in the dark for 4 days. The etiolated seedlings were then incubated for 1 hour in 10 μM of each compound and then transferred to vertical MS medium-containing plates.
# Arabidopsis seedlings [4] = experiment: root elongation inhibition in Arabidopsis seedlings; details: 50 nM; for effect on root elongation relative to control, in words: after 5 days
# Procedure: as §1
# A common technique for evaluating auxin activity is by determining the ability of a compound to inhibit root elongation [Zolman et al., Genetics 2000, 156:1323-1337]. In order to use this assay for comparing auxin activities of different conjugates, the minimum concentration of free 4-CPA that is active in the root elongation inhibition assay was determined. Four days old seedlings were placed in vertical plates containing increasing concentrations of 4-CPA. The root lengths were marked daily during 5 days.
# Based on the above results, the effect of conjugates of 4-CPA (Compounds 1o-1t) on root elongation after 5 days was determined at concentrations of 50 nM.
# mung bean cuttings = experiment: rooting of mung bean cuttings (number of adventitious roots per cutting); details: tested at 2, 10 or 50 μM
# Procedure: Mung bean cuttings have been used for many years as a model for assessing the effect of plant hormones and synthetic chemicals on the rooting process. In the present study, this system was used to ascertain activity of conjugates in inducing adventitious root (AR) formation, and to evaluate the rate of conjugate hydrolysis that releases the free active auxin. […] The rooting activity in this system is determined by the number of adventitious roots per cutting.
# The mung bean model was used to examine the activity of conjugates of three phenoxy acids, 4-CPA, MCPA, and 2-DP, on rooting. For comparison, plants were treated with (unconjugated) IBA or with 2-DP conjugated to glycine methyl ester (Gly-ME).
# Arabidopsis seedlings [5] = experiment: split petri dish assay, separate shoot or root application in etiolated Arabidopsis seedlings; details: 10 μM
# From the text: The observation that AR enhancement in Eucalyptus cuttings was higher when 4-CPA conjugates were applied also to the leaves (as described in Example 3) prompted further investigation into the functions of shoot-derived 4-CPA. To this end, 4-CPA or Compounds 1p and it were applied specifically to roots or shoots of five-day old etiolated Arabidopsis seedlings using a split petri dish (as depicted in FIG. 26) and the effect on root elongation, lateral root (LR) formation and adventitious root (AR) formation was evaluated.
# Arabidopsis plants were germinated and grown in the dark for 5 days, then then transferred to petri dishes with a partition in the middle. Each half of these plates contained either medium alone or with 10 μM of 4-CPA or Compound 1p or 1tl. The etiolated seedlings were put on the plates with their collet region on the partition such that either the hypocotyl and cotyledons, or the root or both were in touch with the medium containing the tested compound. Adventitious roots and lateral roots were counted and the length of the primary root was measured after a week.
# DR5:venus marker = experiment: auxin activity by DR5:venus fluorescence in Arabidopsis plants; details: 10 μM
# Procedure: Imaging was performed using an SP8 Leica confocal microscope including solid-state lasers producing 405, 488, 514 and 552 nm light, and hybrid or PMT detectors. Objectives were either PL APO 20×/0.75, WD 0.62 mm or PL APO 63×/1.2 WD 0.3 mm. For fluorescence measurements, the Imaris™ spot detection option (Bitplane A.G.) was used to segment nuclei and calculate the average signal intensity.
# One technique for assessing auxin activity of the 4-CPA amino acid conjugates utilized plants expressing nucleus-localized, fluorescent DR5:venus marker, the expression level of which is an indicator of intracellular auxin activity [Laskowski et al., PLoS Biol 2008, 6:e307]. Four days old seedlings grown on regular MS medium were transferred to plates containing 10 μM of the tested compounds and fluorescence was inspected by confocal microscope after 24 hours.
# In order to assess the ability of the abovementioned sodium salts to penetrate the cells and activate an auxin response, an Arabidopsis DR5-Venus model was utilized (as described hereinabove). The plants were exposed to 10 μM of each compound for 24 hour; MS medium was used as a negative control, and the related Compounds 1p, 1r and 1t were used as positive controls.
# [6] = test system: Pinus halepensis cuttings; experiment: rooting and root development in pine cuttings; details: 400 ppm IBA potassium salt + 5 ppm conjugate, 4 hours dip; 12 weeks
# Procedure: The effects of exemplary D-amino acid conjugates of 4-CPA (Compounds to and Is) on rooting in Pinus halepensis cuttings were compared with those of 2-DP-glycine methyl ester conjugate (2-DP-Gly). Rooting mature pine cuttings (i.e., cuttings that are taken from trees more than 4 years old) is very difficult.
# Apical cuttings were taken from 7-year-old trees, stored for 4 weeks at 4° C., and treated by dipping the cutting bases for 4 hours in the following solution: 400 ppm IBA potassium salt+5 ppm tested conjugate+0.1% Amistar™ fungicide (250 grams/liter azoxystrobin). The cuttings were evaluated after 12 weeks.
# [7] = test system: avocado rootstock cuttings; experiment: rooting of avocado rootstock cuttings; details: VC801 rootstock
# From the text: Avocado rootstock is extremely difficult to root. Currently, the common technique for propagating clones of avocado rootstock is to graft the desired rootstock on a seedling, and transfer to the dark to generate an etiolated branch. This branch can be rooted and grafted with the desired variety while still grafted on the seed [Frolich & Platt, California Avocado Society 1971-72 Yearbook 1972, 55:97-109]. However, the preparation of such twice-grafted seedlings is time-consuming and expensive.
# The ability of exemplary conjugates to promote rooting in green avocado cuttings (in the presence of IBA) was therefore examined. In particular, Compounds 2h (MCPA-methanol), 4b (NAA-β-alanine methyl ester), 3g (2-DP-methyl-4-aminobenzoate), 3f (2-DP-p-toluidine), 1l (4-CPA-morpholine) and is (4-CPA-D-Trp) were tested.
# (§2) Exemplary conjugates were also tested for rooting the hard-to-root species of avocado (VC801 rootstock) and argan, according to procedures described hereinabove.
# [8] = test system: argan (Argania spinosa) cuttings; experiment: rooting of argan cuttings; details: in vivo
# Procedure: The ability of exemplary conjugates to promote rooting in plants which are recalcitrant to rooting (in addition to the results obtained with Eucalyptus grandis in Example 3) was examined using cuttings of argan (Argania spinosa) and jojoba (Simmondsia chinensis) in a commercial nursery (Shorashim). The argan and jojoba cuttings were treated with 100 μM of a conjugate (any of Compounds 10-1t) with 6000 ppm IBA. The common treatment T-8 (talc with 8000 ppm IBA and a fungicide) or 6000 ppm IBA (without conjugate) served as a control.
# as §2
smiles,measurement,setting,value
"COC(=O)[C@@H](NC(=O)COc1ccc(Cl)cc1)C(C)C [Compound 1p, 4-CPA-L-Val]",percentage of adventitious root formation (rooting),[1]; 6000 ppm IBA and 100 μM conjugate by submersion of base plus spraying of foliage,51±8%
same,appearance of the roots compared with IBA alone,[1],appeared more branched
same,"rooting in combination with IBA compared with IBA alone, in words",[2],at least as potent as that of their corresponding D-amino acid conjugates
same,adventitious roots formed on average,Arabidopsis seedlings [3],7±1.4
same,"effect on root elongation relative to control, in words",Arabidopsis seedlings [4],inhibited root elongation relative to control
same,time course of root elongation inhibition,"Arabidopsis seedlings [4]; slight inhibition until day 3, complete from day 4",biphasic behavior
same,"effect on AR formation in mung bean cuttings, in words",mung bean cuttings,induced rooting only at low concentrations
same,effect on root growth of application to the shoot compared with application directly to the root,Arabidopsis seedlings [5]; 24 hours on split dish,even stronger
same,"adventitious root formation, exposure of shoots compared to exposure of roots",Arabidopsis seedlings [5]; split dish,significantly more adventitious root formation
same,"lateral root formation, shoot application compared with root application",Arabidopsis seedlings [5]; split dish,inhibited lateral root formation more efficiently than application to roots
same,effect on root tip and root elongation zone,DR5:venus marker,"loss of auxin activity at the root tip, and swelling of the root elongation zone"
COC(=O)[C@H](NC(=O)COc1ccc(Cl)cc1)C(C)C [Compound 1o],appearance of the roots compared with IBA alone,[1],appeared more branched
same,adventitious roots formed on average,Arabidopsis seedlings [3],0.5±0.3
same,"effect on root elongation relative to control, in words",Arabidopsis seedlings [4],did not affect root elongation
same,Degree of root development Medium (%),[6],14.3%
same,Degree of root development Weak (%),[6],7.2%
same,Degree of root development Well-developed (%),[6],71.4* %
same,Rooting rate (%),[6],100%
same,"effect on AR formation in mung bean cuttings, in words",mung bean cuttings,induced rooting to a degree positively correlated with concentration
same,"DR5 fluorescence (auxin activity), in words",DR5:venus marker,significantly lower fluorescence
CC[C@H](C)[C@H](NC(=O)COc1ccc(Cl)cc1)C(=O)OC [4-CPA-L-Ile-methyl ester],"root number compared to IBA control, in words",[1],promoted an increase in root number
same,"rooting of cuttings, repeated experiment in a different season","[1]; Example 12 repeat: 6000 ppm IBA with 50 μM conjugate, or IBA control",50%
same,"root architecture / root length of VC801 avocado cuttings compared to IBA control, in words",[7],more roots per cutting and considerably longer roots
same,rooting of VC801 avocado cuttings,"[7]; conjugate, or IBA control",60%
same,"number of roots per cutting in argan clone YM3 compared to IBA control, in words",[8],considerably increased the number of roots per cutting
COC(=O)[C@H](CC(C)C)NC(=O)COc1ccc(Cl)cc1 [4-CPA-L-Leu-methyl ester],"root number compared to IBA control, in words",[1],promoted an increase in root number
same,average number of adventitious roots,"Arabidopsis seedlings [3]; Example 12: etiolated seedlings, 1 hour in 10 μM",10
same,"root architecture / root length of VC801 avocado cuttings compared to IBA control, in words",[7],considerably increased root length
same,"number of roots per cutting in argan clone YM3 compared to IBA control, in words",[8],considerably increased the number of roots per cutting

# From US20220030866A1, “CONJUGATES OF AUXIN ANALOGS” (The State of Israel, Ministry of Agriculture & Rural …, priority 2019, published 2022)
